Reference: US11180521B2, “Nicotinamide riboside analogs, pharmaceutical compositions, and uses thereof” (Metro International Biotech, LLC, priority 2018, dated 2021)

Assays:
[1] = PK/PD duration of effect study, single oral gavage dose: administered compound level in liver; assay type: in vivo, C57BL/6 mice; design: key to transcyclohexyl NaR dimer concentration: BQL: Below quantitation limit; BDL: Below Detection Limit, No Peak Detected
Experimental: (§1) Transcyclohexyl nicotinic acid riboside (NaR) dimer was administered by oral gavage at a dose of 500 mg/kg in an Ethanol/PBS, pH 7.4/PEG400 (10/30/60) vehicle. The dosing volume was 5 ml/kg at a solution concentration of 100 mg/ml. The solution concentration was increased for the presence of counterion.
(§2) Animals were fasted for 16 hours prior to dosing. Samples were collected pre-dose and at 0.25, 0.75, 1, 2, 4, 8 and 24 hr post dosing. Following euthanasia, the entire liver and skeletal muscle (gastrocnemius with attached soleus muscle, bilateral) were rinsed with 0.9% saline, and frozen for later bioanalysis. Samples were maintained frozen at −80° C. until bioanalysis.
(§3) Samples were thawed, homogenized, extracted and analyzed by LC-MS on the same day. The LC used was a Shimadzu Nexera UPLC, and the mass spectrometer was an AB Sciex Qtrap 6500. Specimens were analyzed for levels of administered compound (transcyclohexyl NaR dimer), as well as for levels of NAD, NAAD, NAM, and NMN by the method of standard addition, to detect alterations from the basal levels of the analytes. Calibration standards for quantifying administered compound were prepared using transcyclohexyl NaR dimer in mouse liver or skeletal muscle homogenates. Corresponding standards for quantifying other metabolites were also prepared. Data are calculated as the mean concentration from n=6 animals per time point.

[2] = tested on: NAD, NAAD, NAM, and NMN levels in liver; test: PK/PD duration of effect study, single oral gavage dose: NAD, NAAD, NAM and NMN levels in liver; assay type: in vivo, C57BL/6 mice; design: key to NAAD concentration: BQL: Below quantitation limit; BDL: Below Detection Limit, No Peak Detected; conditions: for NAAD concentration: pre-dose BDL
Experimental: as §1, §2, §3

transcyclohexyl NaR dimer concentration ([1]; 0.75 hr after 500 mg/kg oral gavage, pre-dose BQL): 0.000387 mmol/kg
transcyclohexyl NaR dimer concentration ([1]; 1 hr after 500 mg/kg oral gavage, pre-dose BQL): 0.000275 mmol/kg
transcyclohexyl NaR dimer concentration ([1]; 2 hr after 500 mg/kg oral gavage, pre-dose BQL): 0.0000706 mmol/kg
transcyclohexyl NaR dimer concentration ([1]; 4 hr after 500 mg/kg oral gavage, pre-dose BQL): BQL
transcyclohexyl NaR dimer concentration ([1]; 8 hr after 500 mg/kg oral gavage, pre-dose BQL): BQL
transcyclohexyl NaR dimer concentration ([1]; 24 hr after 500 mg/kg oral gavage, pre-dose BQL): BQL
Cmax ([1]; C57BL/6, mouse, 500 mg/kg oral gavage, read-out: Cmax of transcyclohexyl NaR dimer): 10600 ng/g
Tmax ([1]; C57BL/6, mouse, 500 mg/kg oral gavage, read-out: tmax of transcyclohexyl NaR dimer): 15 min
half-life ([1]; C57BL/6, mouse, 500 mg/kg oral gavage, regression points 0.75, 1, 2 h, read-out: t½ of transcyclohexyl NaR dimer (converted)): 30.5 min
concentration at 0.25 h ([1]; C57BL/6, mouse, 0.25 hr after 500 mg/kg oral gavage, pre-dose BQL, read-out: transcyclohexyl NaR dimer concentration): 10600 ng/g
concentration at 0.75 h ([1]; C57BL/6, mouse, 0.75 hr after 500 mg/kg oral gavage, pre-dose BQL, read-out: transcyclohexyl NaR dimer concentration): 327 ng/g
concentration at 1 h ([1]; C57BL/6, mouse, 1 hr after 500 mg/kg oral gavage, pre-dose BQL, read-out: transcyclohexyl NaR dimer concentration): 232 ng/g
concentration at 2 h ([1]; C57BL/6, mouse, 2 hr after 500 mg/kg oral gavage, pre-dose BQL, read-out: transcyclohexyl NaR dimer concentration): 60 ng/g
SMILES: CC(=O)OC[C@H]1O[C@@H]([n+]2cccc(C(=O)O[C@H]3CC[C@H](OC(=O)c4ccc[n+]([C@@H]5O[C@H](COC(C)=O)[C@@H](OC(C)=O)[C@H]5OC(C)=O)c4)CC3)c2)[C@H](OC(C)=O)[C@@H]1OC(C)=O [transcyclohexyl NaR dimer, Transcyclohexyl nicotinic acid riboside (NaR) dimer]
NMN concentration ([2]; 0.25 hr after 500 mg/kg oral gavage, pre-dose 0.00637): 0.00556 mmol/kg
NAM concentration ([2]; 0.25 hr after 500 mg/kg oral gavage, pre-dose 0.430): 0.481 mmol/kg
NAD concentration ([2]; 0.25 hr after 500 mg/kg oral gavage, pre-dose 1.08): 0.938 mmol/kg
NMN concentration ([2]; 0.25 hr after 500 mg/kg oral gavage, pre-dose 2.13): 1.86 µg/g
NAM concentration ([2]; 0.25 hr after 500 mg/kg oral gavage, pre-dose 52.5): 58.7 µg/g
NAD concentration ([2]; 0.25 hr after 500 mg/kg oral gavage, pre-dose 713): 623 µg/g
NAAD concentration ([2]; 0.25 hr after 500 mg/kg oral gavage): BDL
NMN concentration ([2]; 0.75 hr after 500 mg/kg oral gavage, pre-dose 0.00637): 0.00977 mmol/kg
NAM concentration ([2]; 0.75 hr after 500 mg/kg oral gavage, pre-dose 0.430): 1.69 mmol/kg
NAD concentration ([2]; 0.75 hr after 500 mg/kg oral gavage, pre-dose 1.08): 0.493 mmol/kg
NMN concentration ([2]; 0.75 hr after 500 mg/kg oral gavage, pre-dose 2.13): 3.26 µg/g
NAM concentration ([2]; 0.75 hr after 500 mg/kg oral gavage, pre-dose 52.5): 206 µg/g
NAD concentration ([2]; 0.75 hr after 500 mg/kg oral gavage, pre-dose 713): 327 µg/g
NAAD concentration ([2]; 0.75 hr after 500 mg/kg oral gavage): BDL
NMN concentration ([2]; 1 hr after 500 mg/kg oral gavage, pre-dose 0.00637): 0.00945 mmol/kg
NAM concentration ([2]; 1 hr after 500 mg/kg oral gavage, pre-dose 0.430): 1.48 mmol/kg
NAD concentration ([2]; 1 hr after 500 mg/kg oral gavage, pre-dose 1.08): 0.575 mmol/kg
NMN concentration ([2]; 1 hr after 500 mg/kg oral gavage, pre-dose 2.13): 3.16 µg/g
NAM concentration ([2]; 1 hr after 500 mg/kg oral gavage, pre-dose 52.5): 181 µg/g
NAD concentration ([2]; 1 hr after 500 mg/kg oral gavage, pre-dose 713): 381 µg/g
NAAD concentration ([2]; 1 hr after 500 mg/kg oral gavage): BDL
NMN concentration ([2]; 2 hr after 500 mg/kg oral gavage, pre-dose 0.00637): 0.00706 mmol/kg
NAM concentration ([2]; 2 hr after 500 mg/kg oral gavage, pre-dose 0.430): 0.660 mmol/kg
NAD concentration ([2]; 2 hr after 500 mg/kg oral gavage, pre-dose 1.08): 1.19 mmol/kg
NMN concentration ([2]; 2 hr after 500 mg/kg oral gavage, pre-dose 2.13): 2.36 µg/g
NAM concentration ([2]; 2 hr after 500 mg/kg oral gavage, pre-dose 52.5): 80.6 µg/g
NAD concentration ([2]; 2 hr after 500 mg/kg oral gavage, pre-dose 713): 787 µg/g
NMN concentration ([2]; 4 hr after 500 mg/kg oral gavage, pre-dose 0.00637): 0.0146 mmol/kg
NAM concentration ([2]; 4 hr after 500 mg/kg oral gavage, pre-dose 0.430): 0.791 mmol/kg
NAD concentration ([2]; 4 hr after 500 mg/kg oral gavage, pre-dose 1.08): 2.23 mmol/kg
NMN concentration ([2]; 4 hr after 500 mg/kg oral gavage, pre-dose 2.13): 4.87 µg/g
NAM concentration ([2]; 4 hr after 500 mg/kg oral gavage, pre-dose 52.5): 96.5 µg/g
NAD concentration ([2]; 4 hr after 500 mg/kg oral gavage, pre-dose 713): 1478 µg/g
NMN concentration ([2]; 8 hr after 500 mg/kg oral gavage, pre-dose 0.00637): 0.0250 mmol/kg
NAM concentration ([2]; 8 hr after 500 mg/kg oral gavage, pre-dose 0.430): 0.609 mmol/kg
NAD concentration ([2]; 8 hr after 500 mg/kg oral gavage, pre-dose 1.08): 4.92 mmol/kg
NMN concentration ([2]; 8 hr after 500 mg/kg oral gavage, pre-dose 2.13): 8.34 µg/g
NAM concentration ([2]; 8 hr after 500 mg/kg oral gavage, pre-dose 52.5): 74.3 µg/g
NAD concentration ([2]; 8 hr after 500 mg/kg oral gavage, pre-dose 713): 3267 µg/g
NMN concentration ([2]; 24 hr after 500 mg/kg oral gavage, pre-dose 0.00637): 0.00459 mmol/kg
NAM concentration ([2]; 24 hr after 500 mg/kg oral gavage, pre-dose 0.430): 0.381 mmol/kg
NAD concentration ([2]; 24 hr after 500 mg/kg oral gavage, pre-dose 1.08): 1.10 mmol/kg
NMN concentration ([2]; 24 hr after 500 mg/kg oral gavage, pre-dose 2.13): 1.53 µg/g
NAM concentration ([2]; 24 hr after 500 mg/kg oral gavage, pre-dose 52.5): 46.6 µg/g
NAD concentration ([2]; 24 hr after 500 mg/kg oral gavage, pre-dose 713): 731 µg/g
NAAD concentration ([2]; 24 hr after 500 mg/kg oral gavage): BDL
